Assay results published in US20150051078A1, “Glyphosate tank mix adjuvant comprising a base selected from a carbonate and/or a phosphate” (priority 2012, published 2015).

Legend:
[1] = test system: Soya (glycine max) Variant Deltapine, genetically engineered to resist glyphosate; assay type: in vivo; conditions: conclusion from Table 4
Procedure: For the greenhouse tests, maize (cultivar Amadeo) and Chenopodium album was sown or potted in loamy sandy soil to a depth of 1-2 cm. When the plants had reached a growth height of 10 to 25 cm (around 10 to 21 days after sowing), the spray mixtures were applied to the plants in a spraying cabin.
The temperatures in the experimental period, which lasted for 3 to 4 weeks, were between 18-35° C. During this time, the experimental plants received optimum watering, with nutrients being supplied via the water used for watering.
The herbicidal activity was evaluated by awarding scores to the treated plants in comparison to the untreated control plants (Table 1 and 2). The evaluation scale ranges from 0% to 100% activity. 100% activity means the complete death at least of those parts of the plant that are above ground. Conversely, 0% activity means that there were no differences between treated and untreated plants.
The biological evaluation was made as described in Example 6. The tank mixes were applied at a application rate of 375 l/ha (125 or 250 g of glyphosate free acid/ha and 300 g of adjuvant/ha). The adjuvant Ad1 is an aqeuous solution of 200 g/l Genamin® T150 (a tallow fatty amine ethoxylate with 15 EO). The adjuvant Ad2 is Genamin® T050 (a tallow fatty amine ethoxylate with 5 EO).
Soya (glycine max) Variant Deltapine was genetically engineered to resist glyphosate.

[2] = Procedure: The volatility was determined by analyzing the loss of material by HLPL at 70° C. after 24 h at atmospheric pressure and the loss is summarized in Table 5. The application rate was 500 g/ha dicamba (free acid), 1000 g/ha potassium glyphosate, 300 g/ha Genamin® T050 (“Ad2”, 300 g/ha Preference® (“Ad3”) and optionally 250, 500 or 1000 g/ha K2CO3. Deionised water (hardness<1° dH) was used to prepare the samples. Dicamba BAPMA refers to the bis(3-aminopropyl)methylamine salt of dicamba.

Structure (SMILES) | phytotoxity effect on plants of addition of K2CO3 [1] | Loss of dicamba, Loss (wt %) ([2]; 70° C., 24 h, atmospheric pressure, 500 g/ha dicamba (free acid), deionised water) | pH of tank mix ([2]; deionised water (hardness<1° dH))
O=C([O-])[O-].[K+].[K+] [Example K2CO3, K2CO3] | no phytotoxity effect |  | 
CN(CCCN)CCCN.COc1c(Cl)ccc(Cl)c1C(=O)O [Dicamba BAPMA, bis(3-aminopropyl)methylamine salt of dicamba] |  | <1 wt % | 6.3
